Test results published in patent US20260224632A1, “USE OF A COMPOSITION COMPRISING A NEO-SYNTHESIZED EXTRACELLLAR MATRIX FOR THE TREATMENT OF CANCER, IN PARTICULAR FOR THE INHIBITION OF CANCER VIABILITY, MIGRATION, AND PROLIFERATION” (NOVADIP BIOSCIENCES, priority 2023, published 2026).

Key:
[1] = test system: adult human dermal fibroblasts (HDFa); experiment: CCK-8 viability assay; type: cell-based; details: HDFa (non-tumor); 72 h; NVDM2 7 and 15 mg per well; doxorubicin 0.1 uM
Method: (§1) Doxorubicin (0.1 uM) was used as a positive control treatment and gelatin beads alone were used for comparison with NVDM2 treatment. All treatments were carried out in 96-well plates in transwells. The compositions of the invention (NVDM2) were administered in two different doses: 7 mg and 15 mg per well. The viability was measured using CCK-8 viability bioassay at 72 hours after administration. […] Data represent the mean±s.d. values of % cell viability upon treatment normalized to the respective untreated sample. Blue line represents 100% of viability. Statistical significances between treated vs untreated samples at the respective time point were tested by ANOVA-I. *, p≤0.05; **; p≤0.01, ***; p≤0.001; ns, not significant. Blue dots: values of individual batches (biological replicates). Each chart represents the average value of the data from all batches tested. DS: lyophilized non irradiated powder of NVDM2; DP: lyophilized powder of NVDM2 after irradiation.
(§2) For this assay the Cell Counting Kit-8 Kit was used (Sigma-Aldrich). […] This coloured product (formazan) is measured using a spectrophotometer. […]
(§3) After O/N incubation, the medium was removed, and the cells were incubated for 72 h in the presence of the different doses of the test item. […] The plate was incubated at 37° C. for 2 hour and then absorbance at 450 nm was measured.

[2] = test system: human bone marrow mesenchymal stem cells (hBM-MSCs); experiment: CCK-8 viability assay; type: cell-based; details: hBM-MSCs (non-tumor); 72 h; NVDM2 7 and 15 mg per well; doxorubicin 0.1 uM
Method: as §1, §2, §3

SMILES: COc1cccc2c1C(=O)c1c(O)c3c(c(O)c1C2=O)C[C@@](O)(C(=O)CO)C[C@@H]3O[C@H]1C[C@H](N)[C@H](O)[C@H](C)O1 [doxorubicin, Doxorubicin]
- % cell viability normalized to untreated (CCK-8) [1]: significant inhibitory impact
- % cell viability normalized to untreated (CCK-8) [2]: significant inhibitory impact
